Results from patent publication US9850283B2, “Macrocyclic inhibitors of the PD-1/PD-L1 and CD80(B7-1)/PD-L1 protein/protein interactions” (BRISTOL-MYERS SQUIBB COMPANY, priority 2013, dated 2017).
Positions of bridges follow the written chain, without caps; N, C: chain ends. Non-standard residues stand in square brackets, D forms with d. Residues, ends and D or L forms follow the SMILES beside them. ξ: configuration not given here. Phe(3,4-(OMe)2) = COc1ccc(C[C@H](N)C(=O)O)cc1OC; Phe(4-CH2NH2) = NCc1ccc(C[C@H](N)C(=O)O)cc1; Phe(4-F) = N[C@@H](Cc1ccc(F)cc1)C(=O)O; 2Nal = N[C@@H](Cc1ccc2ccccc2c1)C(=O)O; ξPhe(βξ-Me) = CC(c1ccccc1)C(N)C(=O)O; NMeF = CN[C@@H](Cc1ccccc1)C(=O)O; NMeNle = CCCC[C@H](NC)C(=O)O; Sar = CNCC(=O)O

Columns and labels:
[1] = target: T1, LK35.2-hPD-L1 cells / PE-labeled PD-1-Ig (Homo sapiens, UniProt Q9NZQ7); test: LK35.2-hPD-L1 cell binding high-content screening assay; type: cell-based; details: cell binding assay, cell line not given; cluster symbol; read-out: CBA IC50 cluster
T1 construct: expressed in transfected cells; host or cells: LK35.2 mouse B cell line
T1 sequence (Q9NZQ7 19-290): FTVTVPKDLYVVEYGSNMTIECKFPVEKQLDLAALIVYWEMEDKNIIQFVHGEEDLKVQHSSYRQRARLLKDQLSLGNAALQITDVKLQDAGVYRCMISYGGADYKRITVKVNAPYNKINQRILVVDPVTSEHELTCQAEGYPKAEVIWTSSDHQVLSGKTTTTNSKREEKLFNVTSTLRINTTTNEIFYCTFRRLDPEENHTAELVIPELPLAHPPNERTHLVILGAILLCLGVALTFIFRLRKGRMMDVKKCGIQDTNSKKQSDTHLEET
Method in brief: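 Binding of PE-conjugated human PD-1-Ig (1 nM final) to human PD-L1 stably expressed on a mouse B-cell line (LK35.2) was measured by high-content imaging after washes. Compound and labeled PD-1-Ig were co-incubated 1 h at 37 °C with cells in RPMI/10% FCS.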

Human PD-L1/PD-1 = target: T2, Human PD-L1/PD-1 (Homo sapiens, UniProt Q9NZQ7); test: HTRF PD-1-Ig/PD-L1-His binding assay (human PD-L1); details: cluster symbol; read-out: HTRF IC50 cluster
T2 construct: made in house; host or cells: HEK293T
T2 sequence (Q9NZQ7 with tags, fused parts or gaps): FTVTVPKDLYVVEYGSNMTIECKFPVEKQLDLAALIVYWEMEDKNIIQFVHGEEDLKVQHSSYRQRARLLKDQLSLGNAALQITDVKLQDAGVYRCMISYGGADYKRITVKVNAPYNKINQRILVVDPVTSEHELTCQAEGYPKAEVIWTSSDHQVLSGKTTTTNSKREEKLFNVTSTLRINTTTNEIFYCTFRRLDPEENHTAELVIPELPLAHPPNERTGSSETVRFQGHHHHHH
Method in brief: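 Readout: time-resolved FRET between Eu cryptate-labeled anti-Ig (1 nM final) and APC-labeled anti-His (20 nM final) antibodies. These detect interaction of Fc-fused PD-1 with His-tagged human PD-L1 in dPBS containing 0.1% BSA and 0.05% Tween-20.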

SMILES	IC50 [1]	IC50 (Human PD-L1/PD-1)
CCCC[C@H]1C(=O)N(C)CC(=O)N[C@@H](CC(=O)O)C(=O)N[C@@H](C(C)C)C(=O)N(C)[C@@H](Cc2ccccc2)C(=O)N[C@@H](Cc2ccc(O)cc2)C(=O)N(C)CC(=O)N[C@@H](Cc2c[nH]c3ccccc23)C(=O)N[C@@H](Cc2ccc(O)cc2)C(=O)N[C@@H](CC(C)C)C(=O)N[C@H](C(=O)NCC(N)=O)CSCC(=O)NC(C(C)c2ccccc2)C(=O)N(C)[C@@H](Cc2ccccc2)C(=O)N1C (stereo partly drawn) [Example 3516] ({CH2CO}-[ξPhe(βξ-Me)][NMeF][NMeNle][Sar]DV[NMeF]Y[Sar]WYLCG-NH2; thioether N-13)	> 74.3 nM	> 30.5 nM
CCCC[C@H]1C(=O)N(C)CC(=O)N[C@@H](CC(=O)O)C(=O)N[C@@H](C(C)C)C(=O)N(C)[C@@H](Cc2ccccc2)C(=O)N[C@@H](Cc2ccc(O)cc2)C(=O)N(C)CC(=O)N[C@@H](Cc2c[nH]c3ccccc23)C(=O)N[C@@H](Cc2ccc(O)cc2)C(=O)N[C@@H](CC(C)C)C(=O)N[C@H](C(=O)NCC(=O)O)CSCC(=O)N[C@@H](Cc2ccccc2)C(=O)N(C)[C@@H](Cc2ccccc2)C(=O)N1C [Example 3517] (HELM PEPTIDE1{[O=C(C[*:3])[*:2]].F.[meF].[CCCC[C@@H](C(=O)[*:2])N(C)[*:1]].[Sar].D.V.[meF].Y.[Sar].W.Y.L.C.G}$PEPTIDE1,PEPTIDE1,1:R3-14:R3$$$V2.0)	> 74.3 nM	> 30.5 nM
CCCC[C@H]1C(=O)N(C)CC(=O)N[C@@H](CC(=O)O)C(=O)N[C@@H](C(C)C)C(=O)N(C)[C@@H](Cc2ccccc2)C(=O)N[C@@H](Cc2ccc(O)cc2)C(=O)N(C)CC(=O)N[C@@H](Cc2c[nH]c3ccccc23)C(=O)N[C@@H](Cc2ccc(O)cc2)C(=O)N[C@@H](Cc2ccc(O)cc2)C(=O)N[C@H](C(=O)NCC(N)=O)CSCC(=O)N[C@@H](Cc2ccccc2)C(=O)N(C)[C@@H](Cc2ccccc2)C(=O)N1C [Example 3519] (HELM PEPTIDE1{[O=C(C[*:3])[*:2]].F.[meF].[CCCC[C@@H](C(=O)[*:2])N(C)[*:1]].[Sar].D.V.[meF].Y.[Sar].W.Y.Y.C.G.[am]}$PEPTIDE1,PEPTIDE1,1:R3-14:R3$$$V2.0)	4.78 to 72.9 nM	6.76 to 30.3 nM
CCCC[C@H]1C(=O)N(C)CC(=O)N[C@@H](CC(=O)O)C(=O)N[C@@H](C(C)C)C(=O)N(C)[C@@H](Cc2ccccc2)C(=O)N[C@@H](Cc2ccc(O)cc2)C(=O)N(C)CC(=O)N[C@@H](Cc2c[nH]c3ccccc23)C(=O)N[C@@H](Cc2ccc(O)cc2)C(=O)N[C@@H](CC(C)C)C(=O)N[C@H](C(=O)NCC(N)=O)CSCC(=O)N[C@@H](Cc2ccc(F)cc2)C(=O)N(C)[C@@H](Cc2ccccc2)C(=O)N1C [Example 3520] ({CH2CO}-[Phe(4-F)][NMeF][NMeNle][Sar]DV[NMeF]Y[Sar]WYLCG-NH2; thioether N-13)	0.158 to 4.71 nM	6.76 to 30.3 nM
CCCC[C@H]1C(=O)N(C)CC(=O)N[C@@H](CC(=O)O)C(=O)N[C@@H](C(C)C)C(=O)N[C@@H](Cc2ccc(CN)cc2)C(=O)N[C@@H](Cc2ccc(O)cc2)C(=O)N(C)CC(=O)N[C@@H](Cc2c[nH]c3ccccc23)C(=O)N[C@@H](Cc2ccc(O)cc2)C(=O)N[C@@H](CC(C)C)C(=O)N[C@H](C(=O)NCC(N)=O)CSCC(=O)N[C@@H](Cc2ccccc2)C(=O)N(C)[C@@H](Cc2ccccc2)C(=O)N1C [Example 3523] ({CH2CO}-F[NMeF][NMeNle][Sar]DV[Phe(4-CH2NH2)]Y[Sar]WYLCG-NH2; thioether N-13)	> 74.3 nM	> 30.5 nM
CCCC[C@H]1C(=O)N(C)CC(=O)N[C@@H](CC(=O)O)C(=O)N[C@@H](C(C)C)C(=O)N(C)[C@@H](Cc2ccccc2)C(=O)N[C@@H](Cc2ccc(CN)cc2)C(=O)N(C)CC(=O)N[C@@H](Cc2c[nH]c3ccccc23)C(=O)N[C@@H](Cc2ccc(O)cc2)C(=O)N[C@@H](CC(C)C)C(=O)N[C@H](C(=O)NCC(N)=O)CSCC(=O)N[C@@H](Cc2ccccc2)C(=O)N(C)[C@@H](Cc2ccccc2)C(=O)N1C [Example 3524] ({CH2CO}-F[NMeF][NMeNle][Sar]DV[NMeF][Phe(4-CH2NH2)][Sar]WYLCG-NH2; thioether N-13)	0.158 to 4.71 nM	6.76 to 30.3 nM
CCCC[C@H]1C(=O)N(C)CC(=O)N[C@@H](CC(=O)O)C(=O)N[C@@H](CCC)C(=O)N(C)[C@@H](Cc2ccccc2)C(=O)N[C@@H](Cc2ccc(O)cc2)C(=O)N(C)CC(=O)N[C@@H](Cc2c[nH]c3ccccc23)C(=O)N[C@@H](Cc2ccc(O)cc2)C(=O)N[C@@H](CC(C)C)C(=O)N[C@H](C(=O)NCC(N)=O)CSCC(=O)N[C@@H](Cc2ccccc2)C(=O)N(C)[C@@H](Cc2ccccc2)C(=O)N1C [Example 3525] (HELM PEPTIDE1{[O=C(C[*:3])[*:2]].F.[meF].[CCCC[C@@H](C(=O)[*:2])N(C)[*:1]].[Sar].D.[Nva].[meF].Y.[Sar].W.Y.L.C.G.[am]}$PEPTIDE1,PEPTIDE1,1:R3-14:R3$$$V2.0)	> 74.3 nM	> 30.5 nM
CCCC[C@H]1C(=O)N[C@H](CCC(=O)O)C(=O)N[C@@H](CC(=O)O)C(=O)N[C@@H](C(C)C)C(=O)N(C)[C@@H](Cc2ccccc2)C(=O)N[C@@H](Cc2ccc(O)cc2)C(=O)N(C)CC(=O)N[C@@H](Cc2c[nH]c3ccccc23)C(=O)N[C@@H](Cc2ccc(O)cc2)C(=O)N[C@@H](CC(C)C)C(=O)N[C@H](C(=O)NCC(N)=O)CSCC(=O)N[C@@H](Cc2ccccc2)C(=O)N(C)[C@@H](Cc2ccccc2)C(=O)N1C [Example 3527] (HELM PEPTIDE1{[O=C(C[*:3])[*:2]].F.[meF].[CCCC[C@@H](C(=O)[*:2])N(C)[*:1]].[dE].D.V.[meF].Y.[Sar].W.Y.L.C.G.[am]}$PEPTIDE1,PEPTIDE1,1:R3-14:R3$$$V2.0)	4.78 to 72.9 nM	6.76 to 30.3 nM
CCCC[C@H]1C(=O)N(C)CC(=O)N[C@@H](CC(=O)O)C(=O)N[C@@H](CC(C)C)C(=O)N(C)[C@@H](Cc2ccccc2)C(=O)N[C@@H](Cc2ccc(O)cc2)C(=O)N(C)CC(=O)N[C@@H](Cc2c[nH]c3ccccc23)C(=O)N[C@@H](Cc2ccc(O)cc2)C(=O)N[C@@H](CC(C)C)C(=O)N[C@H](C(=O)NCC(N)=O)CSCC(=O)N[C@@H](Cc2ccccc2)C(=O)N(C)[C@@H](Cc2ccccc2)C(=O)N1C [Example 3529] (HELM PEPTIDE1{[O=C(C[*:3])[*:2]].F.[meF].[CCCC[C@@H](C(=O)[*:2])N(C)[*:1]].[Sar].D.L.[meF].Y.[Sar].W.Y.L.C.G.[am]}$PEPTIDE1,PEPTIDE1,1:R3-14:R3$$$V2.0)	4.78 to 72.9 nM	> 30.5 nM
CCCC[C@H]1C(=O)N(C)CC(=O)N[C@@H](CC(=O)O)C(=O)N[C@@H](C(C)C)C(=O)N(C)[C@@H](Cc2ccccc2)C(=O)N[C@@H](Cc2ccc(OC)c(OC)c2)C(=O)N(C)CC(=O)N[C@@H](Cc2c[nH]c3ccccc23)C(=O)N[C@@H](Cc2ccc(O)cc2)C(=O)N[C@@H](CC(C)C)C(=O)N[C@H](C(=O)NCC(N)=O)CSCC(=O)N[C@@H](Cc2ccccc2)C(=O)N(C)[C@@H](Cc2ccccc2)C(=O)N1C [Example 3533] ({CH2CO}-F[NMeF][NMeNle][Sar]DV[NMeF][Phe(3,4-(OMe)2)][Sar]WYLCG-NH2; thioether N-13)	4.78 to 72.9 nM	6.76 to 30.3 nM
CCCC[C@H]1C(=O)N(C)CC(=O)N[C@@H](CC(=O)O)C(=O)N[C@@H](C(C)C)C(=O)N(C)[C@@H](Cc2ccccc2)C(=O)N[C@@H](Cc2ccccc2)C(=O)N(C)CC(=O)N[C@@H](Cc2c[nH]c3ccccc23)C(=O)N[C@@H](Cc2ccc(O)cc2)C(=O)N[C@@H](CC(C)C)C(=O)N[C@H](C(=O)NCC(N)=O)CSCC(=O)N[C@@H](Cc2ccccc2)C(=O)N(C)[C@@H](Cc2ccccc2)C(=O)N1C [Example 3534] (HELM PEPTIDE1{[O=C(C[*:3])[*:2]].F.[meF].[CCCC[C@@H](C(=O)[*:2])N(C)[*:1]].[Sar].D.V.[meF].F.[Sar].W.Y.L.C.G.[am]}$PEPTIDE1,PEPTIDE1,1:R3-14:R3$$$V2.0)	4.78 to 72.9 nM	6.76 to 30.3 nM
CCCC[C@H]1C(=O)N(C)CC(=O)N[C@@H](CC(=O)O)C(=O)N[C@@H](C(C)C)C(=O)N(C)[C@@H](Cc2ccccc2)C(=O)N[C@@H](Cc2ccc3ccccc3c2)C(=O)N(C)CC(=O)N[C@@H](Cc2c[nH]c3ccccc23)C(=O)N[C@@H](Cc2ccc(O)cc2)C(=O)N[C@@H](CC(C)C)C(=O)N[C@H](C(=O)NCC(N)=O)CSCC(=O)N[C@@H](Cc2ccccc2)C(=O)N(C)[C@@H](Cc2ccccc2)C(=O)N1C [Example 3535] ({CH2CO}-F[NMeF][NMeNle][Sar]DV[NMeF][2Nal][Sar]WYLCG-NH2; thioether N-13)	4.78 to 72.9 nM	> 30.5 nM
CCCC[C@H]1C(=O)N(C)CC(=O)N[C@@H](CC(=O)O)C(=O)N[C@@H](C(C)C)C(=O)N(C)[C@@H](Cc2ccccc2)C(=O)N[C@@H](Cc2ccc(O)cc2)C(=O)N(C)CC(=O)N[C@@H](Cc2c[nH]c3ccccc23)C(=O)N[C@@H](Cc2ccc(O)cc2)C(=O)N[C@@H](Cc2ccc(CN)cc2)C(=O)N[C@H](C(=O)NCC(N)=O)CSCC(=O)N[C@@H](Cc2ccccc2)C(=O)N(C)[C@@H](Cc2ccccc2)C(=O)N1C [Example 3536] ({CH2CO}-F[NMeF][NMeNle][Sar]DV[NMeF]Y[Sar]WY[Phe(4-CH2NH2)]CG-NH2; thioether N-13)	4.78 to 72.9 nM	6.76 to 30.3 nM
CCCC[C@H]1C(=O)N(C)CC(=O)N[C@@H](CC(=O)O)C(=O)N[C@@H](C(C)C)C(=O)N(C)[C@@H](Cc2ccccc2)C(=O)N[C@@H](Cc2ccc(O)cc2)C(=O)N(C)CC(=O)N[C@@H](Cc2c[nH]c3ccccc23)C(=O)N[C@@H](Cc2ccc(O)cc2)C(=O)N[C@@H](Cc2ccccc2)C(=O)N[C@H](C(=O)NCC(N)=O)CSCC(=O)N[C@@H](Cc2ccccc2)C(=O)N(C)[C@@H](Cc2ccccc2)C(=O)N1C [Example 3537] (HELM PEPTIDE1{[O=C(C[*:3])[*:2]].F.[meF].[CCCC[C@@H](C(=O)[*:2])N(C)[*:1]].[Sar].D.V.[meF].Y.[Sar].W.Y.F.C.G.[am]}$PEPTIDE1,PEPTIDE1,1:R3-14:R3$$$V2.0)	4.78 to 72.9 nM	6.76 to 30.3 nM
